Key:
[1] = tested on: MDA-MB-231 cells; assay: Soft agar colony formation assay (anchorage independent cell growth); type: cell-based, human; conditions: 50 μM compound, about 2 weeks
Procedure: (§1) MDA-MB-231 cells were grown in McCoy's 5A Modified Media (Gibco) supplemented with 10% FBS (Hyclone). Py8119 cells were grown in F12K nutrient media (Gibco) supplemented with 5% Fetal Clone II (Fisher Scientific). All cell lines were incubated in a 5% CO2 incubator at 37° C.
For anchorage-independent cell growth, MDA-MB-231 cells were plated in 0.4% agarose with complete medium supplemented with 50 μM compound (P1 to P10) on top of a 0.8% agarose base supplemented with complete medium. Cells were maintained for about 2 weeks before staining with p-iodonitrotetrazolium violet (Sigma-Aldrich, St. Louis, Mo.). Images were captured by using a scanner and the numbers of colonies were counted.

[2] = tested on: MDA-MB-231 human breast cancer cells; assay: Transwell cell migration assay; type: cell-based; conditions: MDA-MB-231 cells, 18-20 hr
Procedure: as §1
Migration assays were performed in transwell membrane filter inserts in 24-well tissue culture plates (BD Biosciences San Jose, Calif., USA). The transwell membrane filter inserts contained 6.5-mm diameter, 8-μm pore size, […] polycarbonate membranes. Five-hundred microliter breast cancer cell suspensions were added to the upper side of the inserts at a density of 10×10^4 cells/insert and 750 μl CM with or without other compounds was added to the lower wells. Cells were incubated at 37° C. for 18-20 hr. […] The number of migrated cells in 5 fields of view per insert was counted under a light microscope at magnification 10×.

[3] = tested on: MDA-MB-231 cells; assay: Mammary fat pad xenograft assay; type: in vivo; conditions: after 15 days; 500 μl of a 400 μM solution, IP three times a week; MDA-MB-231 xenograft in nude mice
Description: Four-week-old female athymic nude mice (Harlan Sprague-Dawley, Indianapolis, Ind., USA) were used for the mammary fat pad injections. Four- to five-week old female C57bl/6 mice were used for the intratibial injections. Animals were maintained under the care and supervision of the Laboratory Animal Research facility at the University of Texas Health Science Center, San Antonio, Tex. The animal protocol was approved and monitored by the Institutional Animal Care and Use Committee.
MDA-MB-231 cells were injected subcutaneously in the mammary fat pad of 4-week-old female nu/nu athymic nude mice. Each mouse received bilateral subcutaneous inoculation in both the left and right inguinal mammary fat pad areas with 100 μl of cell suspension containing ˜1×10^7 cells/ml in serum-free media. Animals were randomly assigned to 3 different groups, and solid tumors were allowed to form up to about 5 mm^3 volume before treatments began. Compound P3 400 μmol/500 μl saline, or saline as a control was administered intraperitoneally (IP) three times a week for 3 weeks. The growth of xenograft tumors was monitored twice a week and tumor size was measured with a caliper in two dimensions. Tumor volumes were calculated with the equation V=(L×W^2)×0.5 (mm^3), where L is length and W is width of a tumor.

Compound | decrease in cell colonies as compared to control [1] [%] | inhibitory effects on cell migration [2] | reduction in the tumor size compared to control mice [3]
CCCn1c(=O)c2nc(-c3ccc(OCc4nc5ccccc5[nH]4)cc3)[nH]c2n(CCC)c1=O [Compound P2] | 30 | inhibitory effects | 
CCCn1c(=O)c2nc(-c3ccc(OCc4nc5cc(C(F)(F)F)ccc5[nH]4)cc3)[nH]c2n(CCC)c1=O [Compound P3] | 65 | inhibitory effects | more than 50%
CCCn1c(=O)c2nc(-c3ccc(OCc4nc5cc(F)ccc5[nH]4)cc3)[nH]c2n(CCC)c1=O [Compound P4] |  | inhibitory effects | 
CCCn1c(=O)c2nc(-c3ccc(OCc4nc5cc(C)ccc5[nH]4)cc3)[nH]c2n(CCC)c1=O [Compound P5] |  | inhibitory effects | 
CCOc1ccc(-c2nc3c(N)ncnc3n2CC2CCC2)cc1 [Compound P9] |  | inhibitory effects | 

From patent publication US10214529B2, “Small molecules for the treatment of primary cancer and cancer metastasis” (THE BOARD OF REGENTS OF THE UNIVERSITY OF TEXAS SYSTEM, priority 2015, dated 2019)
